Measured values taken from patent US11407831B2, “Pharmaceutical composition administered in combination with substituted dihydropyrrolopyrazole compound and immunotherapeutic agent” (UBE INDUSTRIES, LTD., priority 2017, dated 2022).

Key:
[1] = tested on: Mouse melanoma cells (B16F10); assay: Mouse Melanoma (B16F10) Cell Growth Inhibition Test; format: cell-based; conditions: B16-F10, 72 h, 3 days culture, CellTiter-Glo (ATP)
Description: Mouse melanoma cells (B16F10) (Cell Resource Center for Biomedical Research, Institute of Development, Aging and Cancer, Tohoku University, Cat. No. TKG0348) were cultured in DMEM medium (REF. 11965-092 manufactured by GIBCO/Thermo Fisher Scientific Inc.) containing 10% FBS (REF. 10082-147 manufactured by GIBCO/Thermo Fisher Scientific Inc.), 1% penicillin/streptomycin/amphotericin B (REF. 15240-096 manufactured by GIBCO/Thermo Fisher Scientific Inc.), and 1 mM sodium pyruvate (REF. 11360-070 manufactured by GIBCO/Thermo Fisher Scientific Inc.) and inoculated at 0.5 to 2.0×10^3 cells/well to a 96-well plate. After overnight culture in a carbon dioxide incubator, culture was further performed for 3 days in a medium containing a solution of a test compound in DMSO (final DMSO concentration: 0.1%), and then, the amount of ATP was measured using CellTiter-Glo (manufactured by Promega Corp.).
The rate of inhibition of cell growth at each concentration was calculated from the test compound concentration and the amount of ATP, and the concentration of the test compound necessary for inhibiting 50% of cell growth (GI50 value) was calculated by using EXSUS (version 8.1.0, manufactured by CAC Croit Corp.).

[2] = tested on: Mouse melanoma cells (B16F10) subcutaneously transplanted; assay: In Vivo Tumor Growth Inhibition Test in Mouse Melanoma Cell (B16F10)-Subcutaneously Transplanted Mouse; set-up: species or system C57BL/6 mice; conditions: day 7
Description: Mouse melanoma cells (B16F10) (Cell Resource Center for Biomedical Research, Institute of Development, Aging and Cancer, Tohoku University, Cat. No. TKG0348) were cultured in DMEM medium (REF. 11965-092 manufactured by GIBCO/Thermo Fisher Scientific Inc.) containing 10% FBS (REF. 10082-147 manufactured by GIBCO/Thermo Fisher Scientific Inc.), 1% penicillin/streptomycin/amphotericin B (REF. 15240-096 manufactured by GIBCO/Thermo Fisher Scientific Inc.), and 1 mM sodium pyruvate (REF. 11360-070 manufactured by GIBCO/Thermo Fisher Scientific Inc.) and adjusted to 1.0×10^7 cells/mL with PBS (REF. 10010-031 manufactured by GIBCO/Thermo Fisher Scientific Inc.). The prepared cell suspension was subcutaneously injected at 0.1 mL/mouse to the right abdomens of C57BL/6 mice (female, supplied by Japan SLC, Inc.). After rearing for a certain period, the long diameter (mm) and short diameter (mm) of tumor were measured with electronic calipers (manufactured by Mitsutoyo Corp., Cat. 500-712-10), and the tumor volume was calculated according to the following expression: Tumor volume (mm^3)=(Long diameter)×(Short diameter)×(Short diameter)×0.5
Individuals whose tumor volume was within the range of 50 to 200 mm^3 were selected and grouped such that the tumor volume was almost equivalent, then an anti-PD-1 antibody (manufactured by Bio X Cell) at 250 μg/mouse or Rat IgG2a (manufactured by Bio X Cell) at 250 μg/mouse was intraperitoneally administered, and further a test compound (25 mg/kg or 100 mg/kg) or only a solvent was orally administered to each group. The initial day of the start of administration was defined as day 0, and the anti-PD-1 antibody or Rat IgG2a were intraperitoneally administered on day 0 and day 3, and the test compound or only the solvent was orally administered once a day from day 0 to day 6. On day 7, the long diameter and short diameter of tumor were measured, and the tumor volume was calculated.

[3] = test compound oral (25 mg/kg or 100 mg/kg) once a day day 0 to 6 + Rat IgG2a 250 μg/mouse i.p. day 0 and 3, vs Rat IgG2a + solvent group
[4] = test compound oral (25 mg/kg or 100 mg/kg) once a day day 0 to 6 in combination with anti-PD-1 antibody 250 μg/mouse i.p. day 0 and 3

| SMILES | GI50 [1] | Rate of inhibition of increase in tumor volume [2, 3] | Rate of inhibition of increase in tumor volume [2, 4] |
| --- | --- | --- | --- |
| CC1(C)c2[nH]nc(NC(=O)C3([Si](C)(C)C)CCC3)c2CN1C(=O)Nc1c(F)cccc1Cl [II-113, N-(2-Chloro-6-fluorophenyl)-6,6-dimethyl-3-[1-(trimethylsilyl)cyclobutanecarboxamido]-4,6-dihydropyrrolo[3,4-c]pyrazole-5(1H)-carboxamide] | ≤ 2000 nM |  |  |
| Cc1cccc(Cl)c1NC(=O)N1Cc2c(NC(=O)C3([Si](C)(C)C)CCC3)n[nH]c2C1(C)C [II-215, N-(2-Chloro-6-methylphenyl)-6,6-dimethyl-3-[1-(trimethylsilyl)cyclobutanecarboxamido]-4,6-dihydropyrrolo[3,4-c]pyrazole-5(1H)-carboxamide] | ≤ 2000 nM | B (50% or more and less than 70%) | A (70% or more and less than 90%) |
| Cc1cccc(Br)c1NC(=O)N1Cc2c(NC(=O)C3([Si](C)(C)C)CCC3)n[nH]c2C1(C)C [II-299, N-(2-Bromo-6-methylphenyl)-6,6-dimethyl-3-[1-(trimethylsilyl)cyclobutanecarboxamido]-4,6-dihydropyrrolo[3,4-c]pyrazole-5(1H)-carboxamide] | ≤ 2000 nM |  |  |
| Cc1ccc(F)cc1NC(=O)N1Cc2c(NC(=O)C3([Si](C)(C)C)CCC3)n[nH]c2C1(C)C [II-361, N-(5-Fluoro-2-methylphenyl)-6,6-dimethyl-3-[1-(trimethylsilyl)cyclobutanecarboxamido]-4,6-dihydropyrrolo[3,4-c]pyrazole-5(1H)-carboxamide] | ≤ 2000 nM |  |  |
| CC1(C)c2[nH]nc(NC(=O)C3([Si](C)(C)C)CCC3)c2CN1C(=O)Nc1c(F)ccc2ccoc12 [II-1049, N-(6-Fluorobenzofuran-7-yl)-6,6-dimethyl-3-[1-(trimethylsilyl)cyclobutanecarboxamido]-4,6-dihydropyrrolo[3,4-c]pyrazole-5(1H)-carboxamide] | ≤ 2000 nM |  |  |
| CC1(C)c2[nH]nc(NC(=O)C3([Si](C)(C)C)CCC3)c2CN1C(=O)Nc1c(F)ccc2cc(Cl)oc12 [II-1063, N-(2-Chloro-6-fluorobenzofuran-7-yl)-6,6-dimethyl-3-[1-(trimethylsilyl)cyclobutanecarboxamido]-4,6-dihydropyrrolo[3,4-c]pyrazole-5(1H)-carboxamide] | ≤ 2000 nM | D (10% or more and less than 30%) | B (50% or more and less than 70%) |

Now from value to compound, other results behind:

| GI50 [1] | SMILES | Rate of inhibition of increase in tumor volume [2, 3] | Rate of inhibition of increase in tumor volume [2, 4] |
| --- | --- | --- | --- |
| ≤ 2000 nM | Cc1ccccc1NC(=O)N1Cc2c(NC(=O)C3([Si](C)(C)C)CCC3)n[nH]c2C1(C)C [II-21, 6,6-Dimethyl-N-(o-tolyl)-3-[1-(trimethylsilyl)cyclobutanecarboxamido]-4,6-dihydropyrrolo[3,4-c]pyrazole-5(1H)-carboxamide] |  |  |
| ≤ 2000 nM | Cc1ccc(C)c(NC(=O)N2Cc3c(NC(=O)C4([Si](C)(C)C)CCC4)n[nH]c3C2(C)C)c1 [II-379, N-(2,5-Dimethylphenyl)-6,6-dimethyl-3-[1-(trimethylsilyl)cyclobutanecarboxamido]-4,6-dihydropyrrolo[3,4-c]pyrazole-5(1H)-carboxamide] | B (50% or more and less than 70%) | A (70% or more and less than 90%) |
| ≤ 2000 nM | Cc1ccc(C)c(NC(=O)N2Cc3c(NC(=O)C4([Si](C)(C)C)CCC4)n[nH]c3C2(C)C)c1F [II-669, N-(2-Fluoro-3,6-dimethylphenyl)-6,6-dimethyl-3-[1-(trimethylsilyl)cyclobutanecarboxamido]-4,6-dihydropyrrolo[3,4-c]pyrazole-5(1H)-carboxamide] |  |  |
| ≤ 2000 nM | Cc1cc2ccc(F)c(NC(=O)N3Cc4c(NC(=O)C5([Si](C)(C)C)CCC5)n[nH]c4C3(C)C)c2o1 [II-1059, N-(6-Fluoro-2-methylbenzofuran-7-yl)-6,6-dimethyl-3-[1-(trimethylsilyl)cyclobutanecarboxamido]-4,6-dihydropyrrolo[3,4-c]pyrazole-5(1H)-carboxamide] |  |  |
